Patent US12285404B2, “Prevention of rosacea inflammation” (The Regents of the University of California, priority 2013, dated 2025)

Columns and labels:
[1] = test system: protease that cleaves full length cathelicidin; settings: cited from earlier work
WT mice = experiment: MC stabilizer experiment: cromolyn sodium I.P. pretreatment before Cath LL-37 challenge (rosacea mouse model); assay type: in vivo
Description: WT mice were injected I.P. with vehicle or cromolyn sodium (10 mg/kg, per day) for 4 days. 24 hours after the last injection, the mice were injected intradermally with 50 μl of […] Cath LL-37 or PBS, twice a day for 2 days. Skin biopsies were taken after 72 hours of observation and (a) Mmp-9 and Cxcl2 mRNA expressions were assessed by RT-PCR, (b) MMP-9 activity was assessed by measuring cleavage of a MMP fluorogenic substrate with specific inhibitors, and (c) immunohistochemistry was performed on frozen skin sections using antibodies against MMP-9 and FcεRI. DAPI stain was also used, as indicated. Statistics: one-way and two-way ANOVA **p<0.01 (n=3).
Mast cell deficient (C57BL/6-KitWsh^−/−) mice were bred. KitWsh^−/− mice bearing the W-sash (Wsh) inversion mutation have MC deficiency, but lack anemia and sterility. […] Wild type mice (C57BL/6) were utilized as control. Mice were shaved 24 hrs before intradermal injection with 50 μl of 50 μM or 320 μM of Cath LL-37 or filtered PBS (n=3), twice a day for 2 days and skin biopsies were taken after 72 hours of observation. Total RNA was extracted and purified by RNeasy Mini Kit (QIAGEN science). For the time course observation, skin biopsies of WT and MC deficient mice were taken at 1, 4, and 24 hrs after Cath LL-37 injection.
For the MC stabilizer experiment: Cromolyn sodium (0.3 mg/mouse/day) (Sigma-Aldrich, St Louis, MO) in PBS was injected I.P. into WT mice for 4 days.
Total-MMP activities were determined by following previously reported study (Kanada et al., 2012). To determine MMP-9 activity, MMP-9 specific inhibitor I (Thermo Fisher Scientific, Chicago, IL) was used.
cDNA was synthesized from RNA using the iScript cDNA Synthesis Kit (BioRad, Hercules, CA) according to the manufacturer's protocol. cDNA was normalized using a NanoDrop spectrophotometer (Thermo Fisher Scientific Inc.). Probes from TagMan Gene Expression Assays (Applied Biosystems ABI, Foster City, CA) were used to analyze gene expressions with following to the manufacturer's instructions. Gapdh mRNA was used as an internal control to validate RNA for each sample. mRNA expression was calculated as the relative expression to Gapdh mRNA, and all data are presented as fold change of each control.
Fluorescence immunohistochemistry. Mouse skin frozen sections were fixed with acetone, washed in 1×PBS, blocked with 5% goat serum/1% BSA for 30 minutes, and incubated with anti-MMP-9 polyclonal antibody (ABBIOTEC, San Diego, CA). For FcERI detection, anti-mouse FcERI PE (eBioscience, San Diego, CA) was used. Images were obtained using a Zeiss LSM510 laser scanning confocal microscope coupled with an Axiovert 100 inverted stage microscope.
According to the obtained results, MC proteases and MMP-9, which are released from MCs upon stimulation by Cath LL-37, are central in promoting rosacea-like skin inflammation. […] To test this hypothesis, cromolyn sodium, a very well-known MC stabilizer, was injected I.P. into WT mice (10 mg/kg, per day) every day for 4 days before Cath LL-37 challenge. 24 hours after the last cromolyn sodium injection, mice were injected with 50 μl of […] Cath LL-37 or PBS, twice a day for 2 days. […] In addition, frozen skin sections were stained with anti-MMP-9 and anti-FIERI antibodies for the detection of MCs.

[2] = test system: erythematotelangiectatic rosacea subjects; experiment: Topical 4% cromolyn sodium vs placebo in erythematotelangiectatic rosacea subjects, clinical evaluation and tape strips; assay type: in vivo, human
Description: (a, b) NHEK cells were co-cultured with 100 μl of supernatant of human cord blood-derived MCs after degranulation by 48/80, or serine buffer. (a) After 24 hrs of co-culture, NHEK cells were washed well and MMP and KLK activities in the cells were obtained, and (b) For the comparison of Cath LL-37 mRNA expression in NHEK cells, 100 nM of 1,25(OH)2VD3 was added to same co-culture. (c) 10 erythematotelangiectatic rosacea subjects were randomized to apply a solution containing either the MC stabilizer (4% cromolyn sodium) (n=5) or placebo (n=5) topically. Tape strips were obtained at the first visit (v1) and last visit (v4) and proteases and protein were separately extracted. Statistics: t-test ***p<0.001 (n=3), *p<0.05 (n=5).
2 mm skin biopsies were taken from the faces of healthy and rosacea subjects, as well as tape strips from the face of erythematotelangiectatic rosacea subjects in the dermatology clinic at the University of California, San Diego. All the procedures involving human subjects were approved by the University of California San Diego Institutional Review Board under the IRB number 071032. Ten randomized adults with erythematotelangiectatic rosacea were applied a water-based solution containing either 4% cromolyn sodium or placebo, topically to their face twice a day, for 8 weeks. A clinical evaluation was performed at each visit. A total six tape strips were obtained from right and left cheek at each of the first visit and the final visit.
To test whether the results were reproducible in humans, 10 randomized adults with erythematotelangiectatic rosacea were used to apply a solution containing either the MC stabilizer (4% cromolyn sodium) or placebo, topically to their face twice daily. Six tape strips were obtained from both right and left cheeks, at the time of first visit (v1) and last visit (v4). After eight week (v4), facial erythema levels decreased in the cromolyn treatment group. MMP, KLK activity and Cath LL-37 protein levels were decreased in the cromolyn treatment group with significant activity in MMP observed (FIG. 5c).

[3] = cromolyn pretreated, Cath LL-37 challenged WT mice, biopsies after 72 hours, p<0.01
[4] = 4% cromolyn sodium topically twice daily, v1 vs v4

NCCc1ccc(S(=O)(=O)F)cc1 [AEBSF, 4-(2-aminoethyl)-benzenesulfonylfluoride]
inhibition of the enzyme in vitro [1]: can inhibit this enzyme in vitro

aprotinin
inhibition of the enzyme in vitro [1]: can inhibit this enzyme in vitro

O=C(O)c1cc(=O)c2c(OCC(O)COc3cccc4oc(C(=O)O)cc(=O)c34)cccc2o1 [cromolyn, cromolyn sodium]
mast cell (MC) degranulation (WT mice; FIG. 4 legend, cromolyn sodium 10 mg/kg per day I.P. for 4 days, WT mice): prevents mast cell (MC) degranulation
MMP-9 activity in the tissue (WT mice; cromolyn pretreated, Cath LL-37 challenged WT mice, MMP fluorogenic substrate with specific inhibitors, p<0.01): dramatically decreased
Cxcl2 mRNA expression in skin (RT-PCR) (WT mice; [3]): significantly decreased
Mmp-9 mRNA expression in skin (RT-PCR) (WT mice; [3]): significantly decreased
skin inflammation (WT mice; cromolyn sodium I.P. 10 mg/kg per day for 4 days, then 50 μl of 320 μm Cath LL-37 intradermally twice a day for 2 days, WT mice): did not develop
facial erythema levels ([2]; 4% cromolyn sodium solution topically to face twice daily, after eight week (v4), n=5): decreased
Cath LL-37 protein levels (tape strips) [2, 4]: decreased
KLK activity (tape strips) [2, 4]: decreased
MMP activity (tape strips) ([2]; 4% cromolyn sodium topically twice daily, v1 vs v4, significant, p<0.05 (n=5)): decreased
